These results are taken from US20230414637A1 (priority 2020, published 2023).

≈ marks a conversion by molar mass, not a printed value. Where two headings read alike, the source gives them in different places.

Series [1] can be described thus: Literature aqueous solubility of niclosamide. To be noted: van Tonder et al [17], converted.
For series [2], the system named is oxidative phosphorylation. To be noted: cited from earlier work.
In series [3] the test system is SARS-CoV-2 in Calu-3 cells. As to conditions: Ko et al [34]; cited from earlier work.
Series [4] can be described thus: Dissolution of niclosamide solvates (water precipitate, acetone and ethanol recrystallized) at pH 9.3. As to conditions: for solubility (equilibrium supernatant concentration several days after dissolution): pH 9.3; for initial dissolution rate, intrinsic parameter: pH 9.3 buffer, 3.5 mgs in 10 mls. An excerpt: To start to evaluate the various expected polymorphs and to try and obtain a morphology that was perhaps like the purchased materials (of unknown processing), three samples were made i.e., the “water-hydrate” precipitated from ethanol into excess water and two that were recrystallized from acetone and from ethanol.
It was filtered on a sintered glass filter, washed three times with deionized water, and dried. The material was ground by mortar and pestle ready for the dissolution test and viewed microscopically to evaluate its crystal morphology.
Each material was also viewed microscopically to evaluate their crystal morphologies.
Dissolution of the solvates. […] 2 uL aliquots were taken directly from the stirred solution in the 20 mL scintillation vial at appropriate time intervals and absorbance at 333 nm was measured by nanodrop spectrophotometer.

Series [5] is described as follows: Equilibrium dissolution of AK Sci niclosamide versus pH (supernatant concentration by UV/Vis at 333 nm).
For series [6] the following is noted: cited from earlier work.
The nature of series [7]: Dissolution and conversion of Sigma niclosamide (3 hrs and overnight stirring).
In series [8] the test system is SARS-CoV-2 in Vero 6 cells. As to conditions: Vero 6 cells, Jeon et al [14]; read-out: IC50 for viral replication; cited from earlier work.
Series [9] deals with GR. To be noted: read-out: relative trans-activation potency (EC50); cited from earlier work.

Turning to `O=C(Nc1ccc([N+](=O)[O-])cc1Cl)c1cc(Cl)ccc1O` [Anhydrate], the “solubility of crystal forms in distilled water” value (from here on “solubility of crystal forms”) in series [1] worked out at 40.4 µM.

In the case of `N#CC(C#N)=NNc1ccc(OC(F)(F)F)cc1` [FCCP], the “concentration of uncoupling activity” value in [2] was 100 nM.

Regarding `O.O=C(Nc1ccc([N+](=O)[O-])cc1Cl)c1cc(Cl)ccc1O` [Monohydrates HA], the “solubility of crystal forms” value in [1] came to 2.9 µM.

As to `O.O=C(Nc1ccc([N+](=O)[O-])cc1Cl)c1cc(Cl)ccc1O` [Monohydrates HB], the “solubility of crystal forms” value in series [1] was found to be 1.87 µM.

In the case of `N=C(N)c1ccc2cc(OC(=O)c3ccc(N=C(N)N)cc3)ccc2c1` [Nafamostat], the antiviral activity entry in series [3] is reported as “few nanomolar”.

With `O=C(Nc1ccc([N+](=O)[O-])cc1Cl)c1cc(Cl)ccc1O` [NicAcetone-recrys], the “solubility (equilibrium supernatant concentration several days after dissolution)” value in series [4] (listed as acetone recrystallized material) came to 79.4 µM (≈ 26 µg/mL). Also, the “initial dissolution rate, intrinsic parameter” value (from here on “initial dissolution rate”) in series [4] came to 0.0369 µM/mg.

As to `O=C(Nc1ccc([N+](=O)[O-])cc1Cl)c1cc(Cl)ccc1O` [NicEtOH-recrys], in series [4], the “initial dissolution rate” value was determined as 0.0439 µM/mg.

In the case of `O=C(Nc1ccc([N+](=O)[O-])cc1Cl)c1cc(Cl)ccc1O` [NicH20ppt], the “solubility (equilibrium supernatant concentration several days after dissolution)” value in series [4] (listed as water solvate) stood at 132.6 µM (≈ 43.4 µg/mL). Besides, in [4], the “initial dissolution rate” value was 0.104 µM/mg.

In the case of `O=C(Nc1ccc([N+](=O)[O-])cc1Cl)c1cc(Cl)ccc1O` [Nic−ve], the “solubility limit of the negatively charged salt” value in [5] (pH 9.5) was ~640 µM; in series [5] (pH not stated at the place), ≥ 670 µM. Also, the “solubility limit of the deprotonated salt” value in [5] (pH 9.63) is given as “at least 703.6 uM”.

For the molecule `Oc1c(Cl)c(Cl)c(Cl)c(Cl)c1Cl` [PCP], the pKa in series [6] (Terada [39]) is listed as 4.80. Moreover, the “concentration of uncoupling activity” value in series [2] (Terada [39]) is 1000 nM.

With `CC(C)(C)c1cc(Cl)cc(C(=O)Nc2ccc([N+](=O)[O-])cc2Cl)c1O` [S-13], in [6] (Terada [39]), the pKa is on record as 6.57. Besides, the “concentration of uncoupling activity” value in series [2] (Terada [39]) was 30 nM.

As for `CC(C)(C)c1cc(C=C(C#N)C#N)cc(C(C)(C)C)c1O` [SF 6847, 3,5-Di-tert-butyl-4-hydroxy-benzylidene-Malononitrile], the pKa in [6] (Terada [39]) is on record as 6.83. The “concentration of uncoupling activity” value in series [2] (Terada [39]) was 10 nM.

For the molecule `O=C(Nc1ccc([N+](=O)[O-])cc1Cl)c1cc(Cl)ccc1O` [Sigma niclosamide], the “supernatant concentration reached at 3 hrs” value (more efficient stirring, pH 9.5, nominal 1 mM) was found to be 680 µM. Also, under “pH 9.44 buffer, more optimized (standardized) stirring”, the “fitted logarithmic dissolution rate, factor of ln(x)” value is 116. In addition, the “reduction of amount of niclosamide in supernatant solution after overnight equilibration” value in series [7] (over the whole pH range) is ~3.5 ×. Besides, in series [7] (pH 9.3), the “solubility after overnight equilibration” value came to 103 µM (≈ 33.7 µg/mL). Besides, the “polymorph stability of excess powder in stirred buffer” value in series [7] (several hours after the first 3 hrs) is listed as “converted to a much lower solubility polymorph”. Moreover, in series [7] (~pH 9.5), the “loss of material concentration from 3 hrs to 24 hrs” value is 434 µM and the “supernatant niclosamide concentration at 3 hrs” value was found to be 681 µM. Further, the “supernatant niclosamide concentration after 24 hrs (overnight stirring)” value in series [7] (~pH 9.5, filtered 0.22 um) came out at 247 µM.

In the case of `FC(F)(F)c1nc2c(Cl)c(Cl)c(Cl)c(Cl)c2[nH]1` [TTFB], in series [6] (in 50% ethanol), the pKa is on record as 5.5. In addition, in series [2] (Terada [39]), the “concentration of uncoupling activity” value is 100 nM.

On to `CCN(CC)CCCC(C)Nc1ccnc2cc(Cl)ccc12` (centres unmarked) [chloroquine], for which the IC50 in [8] is 9.12 µM.

`O=C(O)c1ccccc1Nc1cccc(C(F)(F)F)c1` [flufenamic acid]: in series [6] (Terada [39]), the pKa is reported as 3.85. In addition, in [2] (Terada [39]), the “concentration of uncoupling activity” value was 50000 nM.

`CCC(=O)O[C@]1(C(=O)SCF)[C@H](C)C[C@H]2[C@@H]3C[C@H](F)C4=CC(=O)C=C[C@]4(C)[C@@]3(F)[C@@H](O)C[C@@]21C` [fluticasone propionate]: in series [9], the EC50 is 320 ± 40 pM.

With `Cc1cccc(C)c1OCC(=O)N[C@@H](Cc1ccccc1)[C@@H](O)C[C@H](Cc1ccccc1)NC(=O)[C@H](C(C)C)N1CCCNC1=O` [lopinavir], the IC50 in [8] is 7.28 µM.

`C[C@@H]1C[C@H]2[C@@H]3CCC4=CC(=O)C=C[C@]4(C)[C@@]3(Cl)[C@@H](O)C[C@]2(C)[C@@]1(OC(=O)c1ccco1)C(=O)CCl` [mometasone furoate]: the EC50 in series [9] was […].
